Patent US10265329B2, “Altering steroid metabolism for treatment of steroid-dependent disease” (THE CLEVELAND CLINIC FOUNDATION, priority 2015, dated 2019)

How the values were obtained:
[1] = Abi metabolites in sera of patients with CRPC treated with Abi acetate; format: in vivo, human; settings: patients undergoing treatment with Abi acetate
Protocol: Patient serum collection and drug extraction. Twelve patients with CRPC undergoing treatment with Abi acetate were consented under an Institutional Review Board—approved protocol (Case 7813). Blood was collected using Vacutainer Plus serum blood collection tubes (#BD367814, Becton Dickenson, Franklin Lakes, N.J.). Blood was collected between 2 and 14 hours after the 1000 mg daily dose of Abi acetate was administered. Blood was allowed to clot and tubes were centrifuged at 2500 RPM for 10 minutes. Serum aliquots were frozen at −80° C. until processing. Drug metabolites and internal standard (d4-cortisol, CDN isotopes Pointe-Claire, Quebec Canada) were extracted from 200 μL of patient serum with methyl tert-butyl ether (Sigma Aldrich, St. Louis, Mo.), evaporated under a stream of nitrogen gas and reconstituted in methanol prior to mass spectrometry analysis.
Patient serum analysis. Blood was obtained from prostate cancer patients with consent under a protocol approved by the Cleveland Clinic Institutional Review Board. Samples were analyzed on a ultra high-performance liquid chromatography station (Shimadzu, Kyoto, Japan) with a DGU-20A3R degasser, 2 LC-30AD pumps, a SIL-30AC autosampler, a CTO-10A column oven and a CBM-20A system controller in tandem with a QTRAP 5500 mass spectrometer (AB Sciex, Framingham, Mass.). […]

LNCaP cells = assay: Cell proliferation assay, DHT-stimulated growth; format: cell-based, human; settings: DHT 0.5 nM, 2, 4 and 6 days
Protocol: LNCaP cells (0.1 million/mL) were seeded in 96-well plates and cultured in phenol red free RPMI-1640 mediums plus 10% charcoal stripped FBS with androgens and/or drugs. Medium was changed every other day. After 2, 4 or 6 days, cells were collected and lysed after treatment. Growth was then determined based on DNA content as detected by Hoechst stain and a Wallac Victor2 1420 Multilabel counter (Perkin Elmer). Two-tailed student's t-test was used to determine significance.

C4-2 xenografts = assay: C4-2 xenograft progression in orchiectomized mice with DHEA pellet; format: in vivo; settings: 0.5 mmol/kg/d i.p.; compared to Abi acetate and enzalutamide
Protocol: Male NSG mice, 6 to 8 weeks of age were obtained from the Cleveland Clinic Biological Resources Unit facility. All mouse studies were conducted under a protocol approved by the Cleveland Clinic Institutional Animal Care and Use Committee. Sample size was determined based on our prior studies of steroidogenesis inhibition in xenograft models of CRPC. Chang et al., Proc Natl Acad Sci USA., 108:13728-13733 (2011). Criteria for progression were determined based on similar criteria that are utilized for clinical progression. Mice were surgically orchiectomized and implanted with a 5 mg 90-day sustained-release DHEA pellet (Innovative Research of America) to mimic CRPC in the context of human adrenal physiology. Two days later, 10^7 VCaP or C4-2 cells were injected subcutaneously with matrigel. […] Control groups were administered 0.1 mL 5% benzyl alcohol and 95% safflower oil solution via intraperitoneal injection every day. Mice in enzalutamide group were fed with enzalutamide in chow every day (10 mg/Kg/day). Tran et al., Science. 324:787-790 (2009). Treatment was not blinded to the investigator. Tumor volume was measured daily, and time to increase in tumor volume by 20% was determined. […] The significance of the difference between treatment groups was assessed by Kaplan-Meier survival analysis using a log-rank test in SigmaStat 3.5.

[2] = tested on: PSA, TMPRSS2 and FKBP5 expression; assay: Inhibition of androgen-responsive gene expression (qPCR); format: cell-based, human
Protocol: Cells were starved with phenol red-free and serum free-medium for at least 48 h and treated with the indicated drugs and/or androgens. RNA was extracted with a GenElute Mammalian Total RNA miniprep kit (Sigma-Aldrich). cDNA was synthesized from 1 μg RNA in a reverse transcription reaction using the iScript cDNA Synthesis Kit (Bio-Rad, Hercules, Calif.). Quantitative PCR (qPCR) analysis was conducted in triplicate with primers for PSA, TMPRSS2, FKBP5, and RPLPO described previously (Chang et al., Cell, 154:1074-1084 (2013), with an ABI 7500 Real-Time PCR machine (Applied Biosystems) using iTaq Fast SYBR Green Supermix with ROX (Bio-Rad) in 96-well plates at a final reaction volume of 20 μL. Accurate quantitation of each mRNA was achieved by normalizing the sample values to RPLPO and to vehicle-treated cells.

SMILES: C[C@]12CCC(=O)C=C1CC[C@@H]1[C@@H]2CC[C@]2(C)C(c3cccnc3)=CC[C@@H]12 [Compound D4A, 17-(3-Pyridyl)androsta-4,16-dien-3-one]
- detection in sera of patients with CRPC [1]: detectable
- effect on DHT-stimulated cell growth (LNCaP cells): more potent than Abi
- progression-free survival (C4-2 xenografts): increased progression-free survival
- suppression of PSA, TMPRSS2 and FKBP5 expression compared to Abi ([2]; induced by DHT, DHEA and R1881, LNCAP, LAPC4 and C4-2 cell lines): clearly better suppresses
- inhibition of DHT-induced endogenous PSA expression ([2]; mutant and wild-type AR (LNCaP and LAPC4)): equivalent to enzalutamide
